# In patent publication US12644886B2, “Biosensor microarray compositions and methods” (Arizona Board of Regents on Behalf of Arizona State …, priority 2013, dated 2026):
# Target: Src kinase (Homo sapiens, UniProt P12931)
# Experiment: FET biosensor detection of Src kinase auto-phosphorylation (phosphokinase activity)
# Format: biochemical
# Description: FIG. 6 FET Biosensor detection of phosphokinase activity.
# In some embodiments the biosensor microarray is used to quantify kinetic rates of interaction between one or more analytes in a test sample and the corresponding detector polypeptides. In other embodiments, the biosensor microarray is used to assess inhibition of a protein activity or a protein-protein interaction. For example, where the detector polypeptide is a protein kinase substrate or a kinase with autophosphorylation activity, phosphokinase activity can be detected in the presence or absence of a known or putative inhibitor of the specific phosphokinase activity (see, e.g. FIGS. 6-7). […] Further, where increased kinase phosphorylation is associated with a particular disease state, the kinase activity of particular biological samples can be assessed by contacting a biosensor microarray described herein with the relevant biological sample and detecting phosphorylation of one or more detector polypeptides. Protein kinases are important targets in a number of health condition, e.g., cancer, pulmonary hypertension, diabetes, Alzheimer's, Parkinson's, CNS diseases, macular degeneration, Idiopathic pulmonary fibrosis, systemic sclerosis, rheumatoid disorders, among other diseases, allowing discovery of kinase inhibitor drugs and applying kinase functional screening as disease diagnostics
# Chain of Src kinase (P12931 whole entry): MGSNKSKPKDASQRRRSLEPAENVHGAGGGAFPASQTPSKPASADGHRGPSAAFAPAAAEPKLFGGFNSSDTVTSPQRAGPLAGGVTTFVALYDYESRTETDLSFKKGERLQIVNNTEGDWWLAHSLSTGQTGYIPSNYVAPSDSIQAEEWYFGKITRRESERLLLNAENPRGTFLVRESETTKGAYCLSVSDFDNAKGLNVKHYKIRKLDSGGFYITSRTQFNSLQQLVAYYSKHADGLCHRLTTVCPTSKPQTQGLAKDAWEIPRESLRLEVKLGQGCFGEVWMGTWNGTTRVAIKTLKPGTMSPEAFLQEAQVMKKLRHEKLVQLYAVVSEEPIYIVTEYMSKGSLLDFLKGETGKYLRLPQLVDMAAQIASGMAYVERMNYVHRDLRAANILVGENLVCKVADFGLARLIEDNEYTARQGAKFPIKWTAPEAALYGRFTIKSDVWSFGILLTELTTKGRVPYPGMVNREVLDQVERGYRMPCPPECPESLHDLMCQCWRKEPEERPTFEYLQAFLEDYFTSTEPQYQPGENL
compound,measurement,setting,value
CN[C@@H]1C[C@H]2O[C@@](C)([C@@H]1OC)n1c3ccccc3c3c4c(c5c6ccccc6n2c5c31)C(=O)NC4 [Staurosporine],Src kinase inhibition (real time detection of Src kinase autophosphorylation),"2 μM staurosporine, FET-based biosensor microarray",inhibition
Nc1ncnc2c1ncn2[C@@H]1O[C@H](COP(=O)(O)OP(=O)(O)O)[C@@H](O)[C@H]1O [ADP],FDEC FET sensor response to Src kinase auto-phosphorylation upon addition,addition of ADP instead of ATP,no response
Nc1ncnc2c1ncn2[C@@H]1O[C@H](COP(=O)(O)OP(=O)(O)OP(=O)(O)O)[C@@H](O)[C@H]1O [ATP],threshold voltage response (FDEC FET response to Src kinase auto-phosphorylation by detecting H+),upon addition of 10 mM ATP,200 mV
